Test results published in patent US6355799B1, “Substituted benzene compounds, process for their preparation, and herbicidal and defoliant compositions containing them” (ISK Americas Incorporated, priority 1997, dated 2002).

Columns and labels:
Type in all cases: in vivo
[1] = system: upland rice (Oryza sp., var. Tebonnet, RICE); assay: Post-emerge test, crop safety; settings: post-emerge, 14 days after application, rating scale 0-100
Summary of the method: (§1)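 Rating: 0–100 visual injury, 14 DAA. Application: acetone, 187 l/ha, 15–1000 g ai/ha, flat-fan track sprayer with nozzle 40–45 cm above soil or canopy. Post-emerge runs used 0.25% v/v surfactant on 2–3 leaf plants.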

[2] = system: field corn (Zea mays L., var. Dekalb 535, CORN); assay: Post-emerge test, crop safety; settings: post-emerge, 14 days after application, rating scale 0-100
Summary of the method: as §1

[3] = system: upland rice (Oryza sp., var. Tebonnet, RICE); assay: Pre-emerge test, crop safety; settings: pre-emerge, 14 days after application, rating scale 0-100
Summary of the method: (§2)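 Herbicidal damage is scored 0 (none) to 100 (complete plant death) two weeks after a simulated field spray. Rates span 15–1000 g ai/ha, delivered in acetone at 187 l/ha. For post-emergence treatments, plants have 2–3 leaves and the spray carries 0.25% v/v non-ionic surfactant.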

[4] = system: field corn (Zea mays L., var. Dekalb 535, CORN); assay: Pre-emerge test, crop safety; settings: pre-emerge, 14 days after application, rating scale 0-100
Summary of the method: as §2

[5] = system: lambsquarters (Chenopodium album, CHEAL); assay: Pre-emerge test, greenhouse herbicide activity screening; settings: pre-emerge, 14 days after application, rating scale 0-100
Summary of the method: (§3)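 Compounds in acetone were track-sprayed at 15–1000 g ai/ha: pre-emergence onto soil sown the previous day, then top-watered to incorporate and later bottom-watered; post-emergence onto 2–3 leaf plants with 0.25% v/v surfactant, bottom-watered only. Ratings on a 0–100 phytotoxicity scale were taken at day 14.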

[6] = system: ivyleaf morningglory (Ipomoea hederacea, IPOHE); assay: as above; settings: pre-emerge, 14 days after application, rating scale 0-100
Summary of the method: as §3

[7] = system: barnyardgrass (Echinochloa crus-galli, ECHCG); assay: as above; settings: pre-emerge, 14 days after application, rating scale 0-100
Summary of the method: as §3

[8] = system: green foxtail (Setaria viridis, SETVI); assay: as above; settings: pre-emerge, 14 days after application, rating scale 0-100
Summary of the method: as §3

[9] = system: large crabgrass (Digitaria sanguinalis, DIGSA); assay: as above; settings: pre-emerge, 14 days after application, rating scale 0-100
Summary of the method: as §3

[10] = system: velvetleaf (Abutilon theophrasti, ABUTH); assay: as above; settings: pre-emerge, 14 days after application, rating scale 0-100
Summary of the method: as §3

[11] = system: sicklepod (Cassia obtusifolia, CASOB); assay: as above; settings: pre-emerge, 14 days after application, rating scale 0-100
Summary of the method: as §3

[12] = system: johnsongrass (Sorghum halepense, SORHA); assay: as above; settings: pre-emerge, 14 days after application, rating scale 0-100
Summary of the method: as §3

[13] = system: redroot pigweed (Amaranthus retroflexus, AMARE); assay: as above; settings: pre-emerge, 14 days after application, rating scale 0-100
Summary of the method: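 Plants grown in 10 cm pots of sandy loam mix received acetone-dissolved compounds through a moving flat-fan nozzle. Doses ranged from 15 to 1000 g ai/ha. Pre-emerge pots were seeded one day earlier, post-emerge pots 8–21 days earlier. Fourteen days on, each pot was graded 0–100 for damage.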

[14] = system: lambsquarters (Chenopodium album, CHEAL); assay: Post-emerge test, greenhouse herbicide activity screening; settings: post-emerge, 14 days after application, rating scale 0-100
Summary of the method: (§4)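 Visual ratings on a 0-100 scale (0 no damage, 100 all plants dead) were taken at 14 days after treatment. Rates of 15-1000 g ai/ha in acetone, 187 l/ha, were sprayed onto soil one day after planting (pre-emerge) or onto 2-3 leaf plants with 0.25% v/v surfactant (post-emerge).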

[15] = system: ivyleaf morningglory (Ipomoea hederacea, IPOHE); assay: as above; settings: post-emerge, 14 days after application, rating scale 0-100
Summary of the method: as §4

[16] = system: barnyardgrass (Echinochloa crus-galli, ECHCG); assay: as above; settings: post-emerge, 14 days after application, rating scale 0-100
Summary of the method: as §4

[17] = system: redroot pigweed (Amaranthus retroflexus, AMARE); assay: as above; settings: post-emerge, 14 days after application
Summary of the method: as §4

[18] = system: green foxtail (Setaria viridis, SETVI); assay: as above; settings: post-emerge, 14 days after application, rating scale 0-100
Summary of the method: as §4

[19] = system: large crabgrass (Digitaria sanguinalis, DIGSA); assay: as above; settings: post-emerge, 14 days after application, rating scale 0-100
Summary of the method: as §4

[20] = system: velvetleaf (Abutilon theophrasti, ABUTH); assay: as above; settings: post-emerge, 14 days after application, rating scale 0-100
Summary of the method: as §4

[21] = system: sicklepod (Cassia obtusifolia, CASOB); assay: as above; settings: post-emerge, 14 days after application, rating scale 0-100
Summary of the method: as §4

[22] = system: johnsongrass (Sorghum halepense, SORHA); assay: as above; settings: post-emerge, 14 days after application, rating scale 0-100
Summary of the method: as §4

[23] = 63 g ai/ha, rating scale 0-100 (0 no damage, 100 complete death)
[24] = 250 g ai/ha, rating scale 0-100

CCOC(=O)C(Cl)Cc1cc(Cl)cc(F)c1-n1c(=O)cc(C(F)(F)F)n(C)c1=O (stereo not shown) [14-60]
60: Post-emerge Herbicidal Activity CORN (crop damage rating) ([2]; 250 g ai/ha) | phytotoxicity rating SETVI ([8]; 250 g ai/ha) | Post-emerge Herbicidal Activity DIGSA (phytotoxicity rating) ([19]; 250 g ai/ha)
99: Post-emerge Herbicidal Activity CHEAL (phytotoxicity rating) ([14]; 63 g ai/ha)
20: Post-emerge Herbicidal Activity RICE (crop damage rating) ([1]; 250 g ai/ha) | phytotoxicity rating RICE ([3]; 250 g ai/ha) | phytotoxicity rating ECHCG ([7]; 250 g ai/ha) | Post-emerge Herbicidal Activity SETVI (phytotoxicity rating) ([18]; 63 g ai/ha) | Post-emerge Herbicidal Activity SORHA (phytotoxicity rating) ([22]; 63 g ai/ha)
0: Post-emerge Herbicidal Activity CORN (crop damage rating) ([2]; 63 g ai/ha) | phytotoxicity rating RICE ([3]; 63 g ai/ha) | phytotoxicity rating CORN ([4]; 63 g ai/ha) | phytotoxicity rating CORN ([4]; 250 g ai/ha) | phytotoxicity rating ECHCG ([7]; 63 g ai/ha) | phytotoxicity rating DIGSA ([9]; 63 g ai/ha) | phytotoxicity rating CASOB ([11]; 63 g ai/ha) | phytotoxicity rating CASOB ([11]; 250 g ai/ha) | phytotoxicity rating SORHA ([12]; 63 g ai/ha)
50: Post-emerge Herbicidal Activity ECHCG (phytotoxicity rating) ([16]; 63 g ai/ha) | Post-emerge Herbicidal Activity SORHA (phytotoxicity rating) ([22]; 250 g ai/ha)
40: Post-emerge Herbicidal Activity CASOB (phytotoxicity rating) ([21]; 63 g ai/ha)
70: Post-emerge Herbicidal Activity AMARE (phytotoxicity rating) [17, 23] | Post-emerge Herbicidal Activity CASOB (phytotoxicity rating) ([21]; 250 g ai/ha)
100: phytotoxicity rating CHEAL ([5]; 63 g ai/ha) | phytotoxicity rating CHEAL ([5]; 250 g ai/ha) | phytotoxicity rating IPOHE ([6]; 250 g ai/ha) | phytotoxicity rating ABUTH ([10]; 63 g ai/ha) | phytotoxicity rating ABUTH ([10]; 250 g ai/ha) | phytotoxicity rating AMARE ([13]; 63 g ai/ha) | phytotoxicity rating AMARE ([13]; 250 g ai/ha) | Post-emerge Herbicidal Activity CHEAL (phytotoxicity rating) ([14]; 250 g ai/ha) | Post-emerge Herbicidal Activity IPOHE (phytotoxicity rating) ([15]; 63 g ai/ha) | Post-emerge Herbicidal Activity IPOHE (phytotoxicity rating) ([15]; 250 g ai/ha) | Post-emerge Herbicidal Activity AMARE (phytotoxicity rating) [17, 24] | Post-emerge Herbicidal Activity ABUTH (phytotoxicity rating) ([20]; 63 g ai/ha) | Post-emerge Herbicidal Activity ABUTH (phytotoxicity rating) ([20]; 250 g ai/ha)
90: phytotoxicity rating IPOHE ([6]; 63 g ai/ha)
10: Post-emerge Herbicidal Activity RICE (crop damage rating) ([1]; 63 g ai/ha) | phytotoxicity rating SETVI ([8]; 63 g ai/ha) | phytotoxicity rating SORHA ([12]; 250 g ai/ha) | Post-emerge Herbicidal Activity DIGSA (phytotoxicity rating) ([19]; 63 g ai/ha)
75: Post-emerge Herbicidal Activity ECHCG (phytotoxicity rating) ([16]; 250 g ai/ha)
30: phytotoxicity rating DIGSA ([9]; 250 g ai/ha) | Post-emerge Herbicidal Activity SETVI (phytotoxicity rating) ([18]; 250 g ai/ha)

COc1c(Cl)cc(F)c(-n2c(=O)cc(C(F)(F)F)n(C)c2=O)c1NN=C(C)C [15-12]
80: Post-emerge Herbicidal Activity RICE (crop damage rating) ([1]; 63 g ai/ha) | Post-emerge Herbicidal Activity CORN (crop damage rating) ([2]; 63 g ai/ha) | Post-emerge Herbicidal Activity SORHA (phytotoxicity rating) ([22]; 63 g ai/ha)
95: Post-emerge Herbicidal Activity CORN (crop damage rating) ([2]; 250 g ai/ha) | Post-emerge Herbicidal Activity AMARE (phytotoxicity rating) [17, 23] | Post-emerge Herbicidal Activity DIGSA (phytotoxicity rating) ([19]; 63 g ai/ha)
70: Post-emerge Herbicidal Activity ECHCG (phytotoxicity rating) ([16]; 63 g ai/ha) | Post-emerge Herbicidal Activity SETVI (phytotoxicity rating) ([18]; 63 g ai/ha)
100: phytotoxicity rating RICE ([3]; 250 g ai/ha) | phytotoxicity rating CORN ([4]; 63 g ai/ha) | phytotoxicity rating CORN ([4]; 250 g ai/ha) | phytotoxicity rating CHEAL ([5]; 63 g ai/ha) | phytotoxicity rating CHEAL ([5]; 250 g ai/ha) | phytotoxicity rating IPOHE ([6]; 63 g ai/ha) | phytotoxicity rating IPOHE ([6]; 250 g ai/ha) | phytotoxicity rating ECHCG ([7]; 63 g ai/ha) | phytotoxicity rating ECHCG ([7]; 250 g ai/ha) | phytotoxicity rating SETVI ([8]; 63 g ai/ha) | phytotoxicity rating SETVI ([8]; 250 g ai/ha) | phytotoxicity rating DIGSA ([9]; 63 g ai/ha) | phytotoxicity rating DIGSA ([9]; 250 g ai/ha) | phytotoxicity rating ABUTH ([10]; 63 g ai/ha) | phytotoxicity rating ABUTH ([10]; 250 g ai/ha) | phytotoxicity rating CASOB ([11]; 63 g ai/ha) | phytotoxicity rating CASOB ([11]; 250 g ai/ha) | phytotoxicity rating SORHA ([12]; 63 g ai/ha) | phytotoxicity rating SORHA ([12]; 250 g ai/ha) | phytotoxicity rating AMARE ([13]; 63 g ai/ha) | phytotoxicity rating AMARE ([13]; 250 g ai/ha) | Post-emerge Herbicidal Activity CHEAL (phytotoxicity rating) ([14]; 63 g ai/ha) | Post-emerge Herbicidal Activity CHEAL (phytotoxicity rating) ([14]; 250 g ai/ha) | Post-emerge Herbicidal Activity IPOHE (phytotoxicity rating) ([15]; 63 g ai/ha) | Post-emerge Herbicidal Activity IPOHE (phytotoxicity rating) ([15]; 250 g ai/ha) | Post-emerge Herbicidal Activity ECHCG (phytotoxicity rating) ([16]; 250 g ai/ha) | Post-emerge Herbicidal Activity AMARE (phytotoxicity rating) [17, 24] | Post-emerge Herbicidal Activity SETVI (phytotoxicity rating) ([18]; 250 g ai/ha) | Post-emerge Herbicidal Activity DIGSA (phytotoxicity rating) ([19]; 250 g ai/ha) | Post-emerge Herbicidal Activity ABUTH (phytotoxicity rating) ([20]; 63 g ai/ha) | Post-emerge Herbicidal Activity ABUTH (phytotoxicity rating) ([20]; 250 g ai/ha) | Post-emerge Herbicidal Activity CASOB (phytotoxicity rating) ([21]; 250 g ai/ha)
99: Post-emerge Herbicidal Activity RICE (crop damage rating) ([1]; 250 g ai/ha) | phytotoxicity rating RICE ([3]; 63 g ai/ha) | Post-emerge Herbicidal Activity SORHA (phytotoxicity rating) ([22]; 250 g ai/ha)
90: Post-emerge Herbicidal Activity CASOB (phytotoxicity rating) ([21]; 63 g ai/ha)
